In ChEMBL document CHEMBL4229459, “An efficient synthetic route for preparation of antimycobacterial wollamides and evaluation of their in vitro and in vivo efficacy” (Bioorg Med Chem Lett, 2018):
Residues, ends and D or L forms follow the SMILES beside them.

Tested on: Mycobacterium tuberculosis
Experiment: Antimycobacterial activity against Mycobacterium bovis BCG measured after 7 days
Assay type: functional, organism-based
Settings: variant bovis BCG, 168 h

`CC[C@@H](C)[C@@H]1NC(=O)[C@@H](CC(C)C)NC(=O)[C@H](CC(C)C)NC(=O)[C@H](Cc2c[nH]c3ccccc23)NC(=O)[C@@H](CCCN)NC(=O)[C@H](CC(N)=O)NC1=O` showed an IC50 of 2800 nM.
Molecule `CC(C)C[C@@H]1NC(=O)[C@H](Cc2c[nH]c3ccccc23)NC(=O)[C@@H](CCCN)NC(=O)[C@H](CC(N)=O)NC(=O)[C@H](C(C)C)NC(=O)[C@@H](CC(C)C)NC1=O` (HELM PEPTIDE1{[NCCC[C@@H](N[*:1])C(=O)[*:2]].W.L.[dL].V.N}$PEPTIDE1,PEPTIDE1,1:R1-6:R2$$$V2.0) has an IC50 of 3100 nM.
